In US20180282735A1, “PHARMACEUTICAL COMPOSITION FOR NEURODEGENERATIVE BRAIN DISEASE AND SCREENING METHOD FOR THE SAME” (MACROGEN, INC., priority 2017, published 2018):

Legend:
[1] = system: SH-SY5Y tau-BiFC cells; assay type: cell-based; details: for level of tau phosphorylation: SH-SY5Y Tau-BiFC cell line, FIG. 5b; for dose dependence of tau phosphorylation level: SH-SY5Y Tau-BiFC, various concentrations, 29 hours, FIG. 5c; for tau accumulation (tau-BiFC): SH-SY5Y tau-BiFC, FIG. 5
Excerpt: (§1) The establishment of the HEK293/tau-BiFC cell line was previously described (Tak H, Hague M M, Kim M J, Lee J H, Baik J H, Kim Y et al. Himolecular fluorescence complementation; lighting-up Tau-Tau interaction in living cells. PLOS One 2013; 8: e81682). Venus fluorescence protein amino-terminal fragment (VN 173) and carboxyl-terminal fragment (VC 155), which are independently non-fluorescent, were fused to full-length tau proteins. For neuronal cell expression, tau-BiFC constructs (pCMV6-hTau40-VN173 and pCMV6-hTau-VC155) were transfected into SH-SY5Y. SH-SY5Y/tau-BiFC stable cells were selected using Geneticin (200 μg/ml). […] All established cell lines were grown in Dulbecco's modified eagle medium containing 10% fetal bovine serum, […] and 1 μg/ml of Geneticin at 37° C. in a humidified atmosphere containing 5% CO2.
(§2) For microscopic image analysis, HEK293 tau-BiFC and SH-SY5Y tau-BiFC cells were plated onto a black 384-well plate. The next day, tau-BiFC cells were treated with okadaic acid (O8010, Sigma), cyclosporine A (C3662, Sigma) or deltamethrin (D9315, Sigma) at various concentrations. After incubation for 29 hours, the plate was imaged using the Operetta® high contents imaging system (PerkinElmer). The cellular intensities of tau-BiFC fluorescence were analyzed using the Harmony® 3.1 analysis software. Each experiment was performed in triplicate. The bar graphs for BiFC intensity indicate the means ±SEM from three independent experiments.

[2] = system: HEK293 tau-BiFC cells; assay type: cell-based; details: for level of tau phosphorylation: HEK293 Tau-BiFC cell line, FIG. 5b; for tau accumulation (tau-BiFC): HEK293 tau-BiFC, FIG. 5
Excerpt: as §1, §2

[3] = biological target: T1, PP2B (Homo sapiens, UniProt Q08209); details: by binding to cyclophilin or FKBP respectively; cited from earlier work
T1 construct: endogenous in cells; host or cells: SH-SY5Y/tau-BiFC and HEK293/tau-BiFC cells

| Compound | level of tau phosphorylation [1] | dose dependence of tau phosphorylation level [1] | tau accumulation (tau-BiFC) [1] | level of tau phosphorylation [2] | tau accumulation (tau-BiFC) [2] | intensity of tau phosphorylation ([2]; HEK 293 cell line, FIG. 5d) | enzyme activity inhibition [3] |
| --- | --- | --- | --- | --- | --- | --- | --- |
| CC1(C)[C@H](C(=O)O[C@H](C#N)c2cccc(Oc3ccccc3)c2)[C@@H]1C=C(Br)Br [deltamethrin] | increased | declining trend after the threshold of 3 μM | increase of tau accumulation | increased | increase of tau accumulation |  |  |
| C=C1[C@@H](O)[C@@H]2O[C@]3(CC[C@H](/C=C/[C@@H](C)[C@@H]4CC(C)=C[C@@]5(O[C@H](C[C@@](C)(O)C(=O)O)CC[C@H]5O)O4)O3)CC[C@H]2O[C@@H]1[C@@H](O)C[C@H](C)[C@H]1O[C@@]2(CCCCO2)CC[C@H]1C [okadaic acid] | increased | elevated the level of tau phosphorylation in a dose-dependent manner | increase of tau accumulation | increased | increase of tau accumulation | higher intensity of tau phosphorylation |  |
| cyclosporine A | increased | elevated the level of tau phosphorylation in a dose-dependent manner | increase of tau accumulation | increased | increase of tau accumulation |  | inhibits specifically enzyme activity |
